{"source": "the SangsterLogP compilation", "key": {"[1]": {"assay": "method code SF, from DOI: 10.1021/jm00294a005, PMID: 5000561"}, "[2]": {"assay": "method code SF-HPLC, from DOI: 10.1248/cpb.47.1081, PMID: 10478463", "conditions": "pH 6.5"}, "[3]": {"assay": "method code SF-HPLC, from DOI: 10.1016/j.bmc.2015.09.009, PMID: 26385444"}, "[4]": {"assay": "method code SF-AS, from DOI: 10.1016/s0020-1693(00)85781-3"}, "[5]": {"assay": "method code SF-RC, from DOI: 10.1016/j.nucmedbio.2007.12.005, PMID: 18355688", "conditions": "pH 7.4"}, "[6]": {"assay": "method code SF-AS, from DOI: 10.1248/bpb1978.4.759, PMID: 7320829"}, "[7]": {"assay": "method code SF-HPLC, from DOI: 10.1016/0731-7085(91)80215-u, PMID: 1821151", "conditions": "pH 7.4"}, "[8]": {"assay": "method code SF-HPLC, from DOI: 10.1016/s0024-3205(00)00615-9, PMID: 10901288", "conditions": "pH 5.0"}, "[9]": {"assay": "from Ganellin, C.; Brown, T.; Griffiths, R.; Jones, M.; Mitchell, C.; Rana, K.; Saunders, D.; Smith, I.; Sore, E.; Wilks, J.; Young, R. (1991). Use of partition coefficients as a model for brain …"}, "[10]": {"assay": "method code SF-RC, from DOI: 10.1016/j.nucmedbio.2014.05.001, PMID: 24969632", "conditions": "pH 7.4"}, "[11]": {"assay": "not given", "remark": "listed apart in the source"}, "[12]": {"assay": "method code SF-AS, from DOI: 10.1002/ardp.19853180604, PMID: 4026543", "conditions": "pH 7.4"}, "[13]": {"assay": "method code SF-HPLC, from DOI: 10.2174/1871523013666141114203105, PMID: 25403255", "conditions": "pH 7.4"}, "[14]": {"assay": "not given", "remark": "listed apart in the source"}, "[15]": {"assay": "not given", "remark": "listed apart in the source"}, "[16]": {"assay": "not given", "remark": "listed apart in the source"}, "[17]": {"assay": "not given", "remark": "listed apart in the source"}, "[18]": {"assay": "method code SF-AS, from DOI: 10.3109/03639048709068705"}}, "data": [{"compound": "CCCC1CC(C(=O)NC(C(C)O)C2OC(SC)C(O)C(O)C2O)N(C)C1", "note": "(stereo not drawn)", "values": [{"measurement": "logP", "setting": "[1]", "value": 0.2}]}, {"compound": "CON=C(C(=O)NC1C(=O)N2C(C(=O)OCOC(=O)C(C)(C)C)=CCSC12)c1csc(N)n1", "note": "(stereo not drawn)", "values": [{"measurement": "logD", "setting": "[2]", "value": 1.57}]}, {"compound": "CC1=C(C(=O)Nc2nc3ccccc3s2)C(c2ccc(C(F)(F)F)cc2)NC(=S)N1", "note": "(stereo not drawn)", "values": [{"measurement": "logP", "setting": "[3]", "value": 2.92}]}, {"compound": "CC(C)(C)c1ccc2c(c1)COCCOCCOCCOCCOCCOC2", "values": [{"measurement": "logP", "setting": "[4]", "value": 1.71}]}, {"compound": "CN(C(=O)Cc1c(-c2ccc(Cl)cc2)nc2c(Cl)cc(Cl)cn12)c1ccccc1", "values": [{"measurement": "logD", "setting": "[5]", "value": 2.2}]}, {"compound": "O=C1NC(=O)C(c2ccccc2)(c2ccccc2)N1S(=O)(=O)c1ccc([N+](=O)[O-])cc1", "values": [{"measurement": "logP", "setting": "[6]", "value": 4.04}]}, {"compound": "O=C1C(CCS(=O)c2ccccc2)C(=O)N(c2ccccc2)N1c1ccccc1", "note": "(stereo not drawn)", "values": [{"measurement": "logP", "value": 3.56}]}, {"compound": "CCCCN(C)C(=O)Cc1c(-c2ccccc2)nc2c(Cl)cc(Cl)cn12", "values": [{"measurement": "logD", "setting": "[5]", "value": 2.14}]}, {"compound": "CCC(C(=O)OCC1CCCCC1)C(COC(=O)c1ccccc1)c1cncn1C", "note": "(stereo not drawn)", "values": [{"measurement": "logD", "setting": "[7]", "value": 5.47}]}, {"compound": "CCNC(=O)Oc1cc(/C=C(\\C#N)C(=O)N(CC)CC)cc([N+](=O)[O-])c1O", "values": [{"measurement": "logD", "setting": "[8]", "value": 0.82}]}, {"compound": "COc1cccnc1CCCCNc1nc(=O)c(Cc2ccc(C)nc2)c[nH]1", "values": [{"measurement": "logP", "setting": "[9]", "value": 2.58}]}, {"compound": "O=C(OC(C(F)(F)F)C(F)(F)F)N1CCN(Cc2cccc(Oc3ccccc3)c2)CC1", "values": [{"measurement": "logD", "setting": "[10]", "value": 5}]}, {"compound": "O=C1C(CCS(=O)(=O)c2ccccc2)C(=O)N(c2ccccc2)N1c1ccccc1", "values": [{"measurement": "logP", "value": 3.51}]}, {"compound": "Clc1ccc2c(c1)CCc1cccnc1C2=C1CCNCC1", "values": [{"measurement": "logP", "setting": "[11]", "value": 2.56}]}, {"compound": "Cc1ccc(N2C(=O)CSC2=Nn2c(C)nc3ccccc3c2=O)cc1", "values": [{"measurement": "logD", "setting": "[12]", "value": -1.12}]}, {"compound": "CCOC(=O)OC(C)OC(=O)C1=CCSC2C(NC(=O)C(=NOC)c3csc(N)n3)C(=O)N12", "note": "(stereo not drawn)", "values": [{"measurement": "logD", "setting": "[2]", "value": 0.96}]}, {"compound": "C=CCc1ccc(OC(=O)COC(=O)Cc2ccccc2Nc2c(Cl)cccc2Cl)c(OC)c1", "values": [{"measurement": "logD", "setting": "[13]", "value": 5.13}]}, {"compound": "COc1cc(C=Cc2ccncc2)ccc1C=Cc1ccncc1", "values": [{"measurement": "logP", "setting": "[14]", "value": 3.73}]}, {"compound": "CCN(CC)CC(=O)NC1c2ccccc2Oc2c(C)cccc21", "note": "(stereo not drawn)", "values": [{"measurement": "logP", "setting": "[15]", "value": 3.73}]}, {"compound": "CCCCN(C)C(=O)Cc1c(-c2ccc(Cl)cc2)nc2c(Cl)cc(Cl)cn12", "values": [{"measurement": "logD", "setting": "[5]", "value": 2.2}]}, {"compound": "COc1ccc(C(=O)C2c3cccc(O)c3C(=O)c3c(O)cccc32)cc1", "values": [{"measurement": "logP", "setting": "[16]", "value": 3.74}]}, {"compound": "CCCCCCCCCCCCCCCc1cc(O)cc(O)c1", "values": [{"measurement": "logP", "setting": "[17]", "value": 7.4}]}, {"compound": "O=C(N1CCC(C(c2ccc3c(c2)OCO3)c2ccc3c(c2)OCO3)CC1)n1cncn1", "values": [{"measurement": "logD", "setting": "[10]", "value": 3.32}]}, {"compound": "COc1cc(C=Cc2ccccn2)ccc1C=Cc1ccccn1", "values": [{"measurement": "logP", "setting": "[14]", "value": 4.25}]}, {"compound": "CCCCCCCCCCCCCCCCCCCc1cc(O)cc(O)c1", "values": [{"measurement": "logP", "setting": "[17]", "value": 10.9}]}, {"compound": "C(=Cc1ccccn1)c1ccc(C=Cc2ccccn2)cc1", "values": [{"measurement": "logP", "setting": "[14]", "value": 3.75}]}, {"compound": "COc1ccc(C(=O)C2c3cccc(O)c3C(=O)c3c(O)cccc32)cc1OC", "values": [{"measurement": "logP", "setting": "[16]", "value": 3.45}]}, {"compound": "O=C1NC(=O)C(c2ccccc2)(c2ccccc2)N1S(=O)(=O)c1ccc(O)cc1", "values": [{"measurement": "logD", "setting": "[6]; pH 7.0", "value": 1.62}]}, {"compound": "CC1=C(C(=O)Nc2nc3ccccc3s2)C(c2ccc(F)cc2)NC(=S)N1", "note": "(stereo not drawn)", "values": [{"measurement": "logP", "setting": "[3]", "value": 2.18}]}, {"compound": "CCC(C(=O)OCC1CCCCC1)C(COC(C)=O)c1cncn1C", "note": "(stereo not drawn)", "values": [{"measurement": "logD", "setting": "[7]", "value": 3.86}]}, {"compound": "CO[C@@H]1[C@@H](O[C@@H]2O[C@H](C)[C@@H](O[C@H]3C[C@@](C)(O)[C@@H](OC(=O)CC(C)C)[C@H](C)O3)[C@H](N(C)C)[C@H]2O)[C@@H](CC=O)C[C@@H](C)[C@@H](O)/C=C/C=C/C[C@@H](C)OC(=O)C[C@H]1O", "values": [{"measurement": "logP", "setting": "[1]", "value": 2.18}]}, {"compound": "CCCC(=O)OC(CNC(C)C)COc1cccc2ccccc12", "note": "(stereo not drawn)", "values": [{"measurement": "logP", "setting": "[18]", "value": 5.56}]}, {"compound": "c1ccc2c(c1)COCCOCCOCc1ccccc1COCCOC2", "values": [{"measurement": "logP", "setting": "[4]", "value": 2.21}]}]}
